Series [1] has as its system Akt phosphorylation in Aβ42-expressing SH-SY5Y cells. Nature of the series: Akt activation in Aβ42-expressing cells (adenovirus/doxycycline, insulin-stimulated). The format is cell-based. The note with it: SH-SY5Y; for Phospho-Akt levels (T308 and S473 pooled) in cell-based model of Aβ toxicity, verification of analogs: compound 1 μM, insulin 40 nM last 20 minutes. The protocol: Adv TetOn and TRE-Aβ42 viruses were described previously (Magrane et al., 2005). […] Insulin (10 or 40 nM) was added in the last 20-30 min before harvest. […] Cell extracts were prepared in lysis buffer [20 mM Tris-HCl (pH 7.5), 150 mM NaCl, 1 mM EDTA, 1 mM Na3VO4, 1% NP-40, 10% Glycerol, 1 mM Na4P2O7, 1 μg/ml Leupeptin, 1 μg/ml Pepstatin A, 1 μg/ml Aprotinin, 0.1 mM phenylmethylsulfonyl fluoride, and protease inhibitor cocktail (Roche)] and were stored at −80° C. until use.
Whole-cell extracts were used directly for western blot analysis (20˜30 μg). Extracts from cultured cells prepared in lysis buffer, were diluted into Laemmli sample buffer, heated (95° C., 10 min), cleared by centrifugation, separated on SDS-PAGE and transferred to PVDF membrane (Immobilon-P; Millipore). Membranes were blocked in TBS containing 0.3% Tween-20 and 5% (wt/vol) non-fat dry milk. After incubation with primary antibodies (18 hr at 4° C. in buffer containing 5% bovine serum albumin (BSA) and 0.05% NaN3), blots were washed and incubated in horseradish peroxidase (HRP)-conjugated secondary antibodies (1:2000 dilution; Cell Signaling). Signals were detected using ECL reagents and quantified using a Kodak Image Station 4000R.
[…]. […] […]. […] […].

In series [2] the target is T1, PDK-Akt activation sequence (recombinant PDK-1 and Akt-1) (Homo sapiens, UniProt O15530).
T1 construct: purchased Amsbio
T1 sequence (O15530 1-556): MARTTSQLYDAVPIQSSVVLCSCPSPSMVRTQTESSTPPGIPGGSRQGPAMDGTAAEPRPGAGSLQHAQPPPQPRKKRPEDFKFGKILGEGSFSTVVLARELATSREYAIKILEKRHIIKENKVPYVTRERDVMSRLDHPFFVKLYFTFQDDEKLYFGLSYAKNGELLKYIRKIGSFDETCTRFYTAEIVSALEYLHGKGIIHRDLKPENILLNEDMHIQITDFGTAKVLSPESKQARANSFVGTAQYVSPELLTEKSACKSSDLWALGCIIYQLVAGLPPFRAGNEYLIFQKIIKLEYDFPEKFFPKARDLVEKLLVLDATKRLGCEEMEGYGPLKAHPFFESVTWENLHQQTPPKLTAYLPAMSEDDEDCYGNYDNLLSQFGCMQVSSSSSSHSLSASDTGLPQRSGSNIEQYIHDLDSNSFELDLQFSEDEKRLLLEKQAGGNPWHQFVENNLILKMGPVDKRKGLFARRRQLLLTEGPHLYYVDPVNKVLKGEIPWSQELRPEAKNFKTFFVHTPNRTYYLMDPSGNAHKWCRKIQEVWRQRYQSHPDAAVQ
The series is described as follows: In vitro drug screen of PS48-family compounds: PDK-1/Akt-1 activation sequence inhibited by Aβ42 ADDL oligomers (western readout). The format is biochemical. The following applies: for potency relative to PS48: based on Table 1 data; for GSK peptide and Akt T308 phosphorylations, Westerns of in vitro reaction mixture (FIG. 6A): compared to PS48; for fraction of control activity: compound 10 μM. As to the method: Incubation proceeded for 15 min. GSK-tide (Cell Signaling) was then added and the reaction allowed to continue for 20 min more before termination in sample buffer and fractionation on SDS gel. […] The in vitro results were validated using a cell culture-based assay, as above. […] Compound was added for 12 hrs. The cells were stimulated with insulin before harvest.
Where quantified, experiments were carried out in triplicate unless otherwise stated. Mean, standard errors and significance levels using Student's t-test were computed in Excel or Prism. […] Western signal intensities were all quantified by densitometry. […] Therefore, where both endpoints were evaluated, normalized values were both included in the quantification as indicated.
Drug screening experiments were performed using a focused library of novel compounds that were synthesized using PS48 as the starting scaffold. Two generations were created based on structure-activity relations (SAR) in an attempt to optimize performance.

The next series concerns N2a neural cultures. The series is described as follows: WST assay toxicity in N2a neural cultures. The series is classed as cell-based. The following applies: result not shown. From the text:
. […]. Examples of in vitro assay performance are shown in FIG. 6A and FIG. 6B for compound 508-1-25 (generation 1) and compound 508-1-68 (generation 2). […] The new “hit” compounds also had no direct or indirect effects on potential downstream off-targets such as mTOR (protein levels and phosphorylation status, results not shown). […]

Series [3] relates to LTP in rat prefrontal cortical slices. The series is described as follows: Long term potentiation (LTP) in acute prefrontal cortical slices perfused with Aβ42 oligomers. The format is cell-based. The note with it: Aβ42 ADDLs 0.5 μM; PS48 10 μM, at the 1-hour mark after Aβ42 application. The protocol:
FIG. 3A. […] LTP was measured as % baseline excitatory postsynaptic potential (EPSP) amplitudes. […] Washout restored LTP (4).
Minor modifications were made to previous published procedures (Marshall et al., 2017; Molina-Luna et al., 2009). Deeply anesthetized rats (pentobarbital, 50 mg/kg) were decapitated, their brains quickly removed and immersed in cold (5-7° C.), oxygenated (95% O2/5% CO2) artificial cerebrospinal fluid (ACSF) containing: 126 mM NaCl, 3 mM KCl, 1.25 mM NaH2PO4, 1 mM MgSO4, 2 mM CaCl2, 26 mM NaHCO3, 10 mM dextrose. […] Control treatment was DMSO in ACSF (artificial cerebrospinal fluid, 20 μM bicuculline). Extracellular postsynaptic field potentials were recorded using an AxoClamp2B amplifier (Axon instruments) and EX1 differential amplifier (Dagan), and digitized at 10 kHz. Data was acquired using Igor Pro (Wave Metrics) and Neuromatic (neuromatic.thinkrandom.com). The stimulus intensity eliciting 50% of the maximum amplitude (˜32 μA) was used for all measurements before and after LTP induction. Baseline amplitudes were recorded for 20-30 minutes using single field stimuli applied every 30 sec to layer IV-V using concentric bipolar electrodes. Following a stable baseline period, LTP was induced by two sets of high-frequency stimulation (HFS) at 100 Hz, 60 μA (twice stimulus intensity), for 1 sec, 20 sec apart. Extracellular postsynaptic field potentials were measured from layer II-III using glass micropipettes filled with 0.9% NaCl. The amplitude rather than the slope of evoked FPs was used as a measure of the population excitatory synaptic response because in the neocortex the initial slope was contaminated by antidromic stimulation. LTP values were expressed as percentage of mean baseline EPSP±SEM. Paired two-tailed t-tests were used for statistical analysis.
LTP was measured as % baseline excitatory postsynaptic potential (EPSP) amplitudes. […] Washout restored LTP.

Another series has as its system SH-SY5Y cells. Nature of the series: Cell viability, MTT assay, Aβ42-expressing SH-SY5Y cells. The following applies: pretreatment before doxycycline; PS48 10 μM or insulin 100 nM; harvested at 48 hrs. Background: Tetrazolium assays rely on reduction of a dye to a coloured formazan, in cell work by metabolically active cells.
The mark [4] stands for this setting: first generation PS48 analogs, Aβ42 ADDL 10 μM, Aβ 42 alone = 0.62 (.16), control normalized to 1.00.

“Also recorded” adds a separate entry of the source.

In the case of `COC(=O)CNC(=O)/C=C(\CCc1ccc(Cl)cc1)c1ccccc1` [508-1-68], the “Phospho-Akt levels (T308 and S473 pooled) in cell-based model of Aβ toxicity, verification of analogs” value in series [1] is given as “correcting the inhibition of Akt phosphorylation; also recorded: active”. For the same molecule, in series [2], the “potency relative to PS48” value is reported as “increase in potency over PS48”; the “GSK peptide and Akt T308 phosphorylations, Westerns of in vitro reaction mixture (FIG. 6A)” value was “restored activation as well as or better than PS48”. The “fraction of control activity” value in series [2] (second generation PS48 analogs, Aβ 42 alone = 0.72 (.05)) is 1.02 (.06).

On to `O=C(O)CNC(=O)/C=C(/CCc1ccc(Cl)cc1)c1ccccc1` [508-1-25], for which the “Phospho-Akt levels (T308 and S473 pooled) in cell-based model of Aβ toxicity, verification of analogs” value in series [1] was “correcting the inhibition of Akt phosphorylation”; in series [1] (listed as 501-1-25), “active”. Moreover, the LD50 in the series with N2a neural cultures came to 350 µM. Also, the “potency relative to PS48” value in series [2] is reported as “increase in potency over PS48”. Further, in series [2], the “GSK peptide and Akt T308 phosphorylations, Westerns of in vitro reaction mixture (FIG. 6A)” value is recorded as “restored activation as well as or better than PS48”. The “fraction of control activity” value in series [2] (setting [4]) is 0.99 (.07).

Consider `O=C(O)c1cn(Cc2ccc(OC(F)(F)F)cc2)c2ccccc12` [508-1-31], for which the “potency relative to PS48” value in series [2] is given as “increase in potency over PS48”. Also, the “fraction of control activity” value in series [2] (setting [4]) is 0.95 (.11).

As to `O=C(O)/C=C(\CCc1ccc(Cl)cc1)c1ccccc1` [PS47, (E)-5-(4-chlorophenyl)-3-phenylpent-2-enoic acid], the “LTP (% baseline EPSP amplitude) inhibited by Aβ42 oligomers” value in series [3] was “no effect”.

Regarding `O=C(/C=C(/CCc1ccc(Cl)cc1)c1ccccc1)NCCO` [508-1-7], in series [2], the “potency relative to PS48” value is “increase in potency over PS48”; the “GSK peptide and Akt T308 phosphorylations, Westerns of in vitro reaction mixture (FIG. 6A)” value is recorded as “restored activation as well as or better than PS48”. In addition, the “fraction of control activity” value in series [2] (setting [4]) is 0.97 (.10).

With insulin: Human insulin, recombinant, the “cell viability (MTT) of amyloid-bearing cells” value with SH-SY5Y cells is “reverted cells to basal condition or better”. The “Akt activation (pT308) in β-amyloid-expressing cells” value in series [1] (PS48 1 μM or insulin 100 nM added 2 hrs before doxycycline, insulin 40 nM 20 min prior to harvest) was “restored basal Akt activation levels”.

The values are drawn from US12653799B2, “Compositions and methods for treating Alzheimer's disease” (ELEANORE BENNETT CHARITABLE TRUST #2, priority 2021, dated 2026).
